The NIST ThermoML archive (doi:10.1016/j.jct.2019.04.017)
± gives the expanded uncertainty stated by the source.

Experiments:
[1] = xn = mol fraction of the nth substance listed; conditions: 96 kPa, Liquid, Cone and plate viscometry, x2 = 0
[2] = 96 kPa, Liquid; for viscosity: Cone and plate viscometry; for electrical conductivity: Frequency=0.001 MHz, Alternating current cell with electrodes

viscosity ([1]; 288.1 K) [mPa·s] | viscosity ([1]; 298.1 K) [mPa·s] | viscosity ([1]; 308.1 K) [mPa·s] | viscosity ([1]; 318.1 K) [mPa·s] | viscosity ([1]; 328.1 K) [mPa·s] | viscosity ([2]; 288.1 K) [mPa·s] | electrical conductivity ([2]; 288.1 K) [S/m] | electrical conductivity ([2]; 293.1 K) [S/m] | viscosity ([2]; 298.1 K) [mPa·s] | electrical conductivity ([2]; 298.1 K) [S/m] | electrical conductivity ([2]; 303.1 K) [S/m] | viscosity ([2]; 308.1 K) [mPa·s] | electrical conductivity ([2]; 308.1 K) [S/m] | electrical conductivity ([2]; 313.1 K) [S/m] | viscosity ([2]; 318.1 K) [mPa·s] | electrical conductivity ([2]; 318.1 K) [S/m] | electrical conductivity ([2]; 323.1 K) [S/m] | viscosity ([2]; 328.1 K) [mPa·s] | electrical conductivity ([2]; 328.1 K) [S/m] | SMILES
2180 ± 380 | 933.8 ± 110 | 420.3 ± 39 | 195.6 ± 15 | 104.3 ± 7.3 | – | – | – | – | – | – | – | – | – | – | – | – | – | – | OCC(O)CO [glycerol] + C1CCC2=NCCCN2CC1
– | – | – | – | – | 15.35 ± 1 | 0.000222 ± 8.8e-06 | 0.000241 ± 9.5e-06 | 10.32 ± 0.67 | 0.000267 ± 1.1e-05 | 0.000297 ± 1.2e-05 | 8.17 ± 0.53 | 0.00032 ± 1.3e-05 | 0.000356 ± 1.4e-05 | 6.08 ± 0.39 | 0.000382 ± 1.5e-05 | 0.000423 ± 1.7e-05 | 4.91 ± 0.32 | 0.000444 ± 1.8e-05 | C1CCC2=NCCCN2CC1 [1,8-diaza-7-bicyclo[5.4.0]undecene]
– | – | – | – | – | 2180 ± 380 | – | – | 933.8 ± 110 | – | – | 420.3 ± 39 | – | – | 195.6 ± 15 | – | – | 104.3 ± 7.3 | – | OCC(O)CO [glycerol]
